Where two headings read alike, the source gives them in different places. Values belong to the molecule of their own block, whether it stands above or below them.
Tests used:
[1] = Static thermostability of stabilized polyvinyl chloride resin, GARDNER Scale comparator, 185° C.; settings: 185° C. and 210° C. trials, in words
Experimental: The stabilizing power of the substances of the invention was studied by determining the static thermostability of the following resin: […]
Polyvinyl chloride resin
Calcium-12-hydroxy-stearate
Stabilizer from 0.1 to 1
SL 2016 represents a solution of zinc-2-ethyl-hexanoate in a mixture of aromatic hydrocarbons boiling between 158° and 184° C.
The different ingredients were mixed and calendered in a mixer of which the cylinders were heated to 160° C.
The rigid sheets so obtained were then heated in a oven to a temperature of 185° or 210° C., until incipient carbonization.
A oven with a rotating drum, ventilated and equipped with a thermostat was used for this operation.
In the trials described hereunder the behaviour of the sheets containing one of the stabilizers to be tested was compared to that of sheets of the same formula but containing 2-phenyl-indole as stabilizer.
Comparison can be made by one of two methods, namely:
(1) The coloration of the sheets, of which samples were removed from the oven at fixed intervals, was compared to a standard scale of coloration, known as the GARDNER Scale, and expressed in terms of the reference figures of the GARDNER Scale.
Comparisons were made with a GARDNER Scale comparator which contains 18 filters of colored glass and which offers the possibility of observing simultaneously by transparency and in a limited field of view both the sheet and the reference filters.
It may happen that the color of the sheets is far removed from that of the GARDNER Scale, in which case comparison is difficult, if not impossible.
The following results were obtained at a temperature of 185° C., using the method described above: […]

[2] = water; for Extractibility compared with 2-phenyl-indole: in words
Experimental: This study was carried out in accordance with the requirements of the Food and Drug Administration (U.S.A.).
The extractions were performed in semi-rigid bottles, prepared with the resin of which the composition is given below, and with the following solvents: water, ethanol-water 50/50, an aqueous solution of acetic acid (3%) and finally heptane.
The ratio of the volume of solvent to the surface of plastic material exposed to extraction was about 1 to 100ml of solvent, taking into account the geometric characteristics of the bottles.
Heating A thermostated oven for the non-inflammable
solvents (water and acetic acid).
A thermostated water-bath for the inflammable
solvents (alcohol and heptane).
The quantity of stabilizer extracted was determined by colorimetric assay using p-dimethylaminobenzaldehyde, in accordance with the method described in Analytical Chemistry 36,425-26 (1964).
Results are expressed in μg of stabilizer extracted per litre of extraction solvent or, which is the same per 1000cm^2 of surface extracted.

mice [3] = assay: Acute toxicity (LD50 / LDO), oral route, mice; assay type: in vivo
Experimental: (§1) The toxicity of the stabilizers of the invention was studied first and the satisfactory results obtained were such as to justify continuation of the investigation.
(§2) The acute toxicity (LD50) of the stabilizers listed below was measured by determining the dose of substance which provoked the death of 50% of the animals treated.
(§3) A gummy suspension of the substance under study was administered by oral route to groups of at least ten mice and the following results were observed: […]

[4] = known stabilizer, in words; cited from earlier work
mice [5] = settings: known stabilizer, in words; cited from earlier work
[6] = Acute toxicity (LD50 / LDO), oral route, mice; assay type: in vivo; settings: mouse, in vivo
Experimental: as §1, §2, §3

SMILES: CCCCCCCCCCCCOc1ccc(-c2cc3ccc(C)cc3[nH]2)cc1 [Stabilizer 12, 2-(4'-dodecyloxy-phenyl)-6-methyl-indole]
- Stabilizing power compared with 2-phenyl-indole [1]: superior to 2-phenyl-indole
- Extractibility compared with 2-phenyl-indole ([2]; aqueous ethanol and heptane): markedly less extractible than 2-phenyl-indole

- Stabilizing power compared with 2-phenyl-indole [1]: superior to 2-phenyl-indole
SMILES: COc1cc(-c2cc3ccc(C)cc3[nH]2)ccc1O [Stabilizer 13, 2(3'-methoxy-4'-hydroxy-phenyl)6-methyl-indole]

- Stabilizing power compared with 2-phenyl-indole [1]: superior to 2-phenyl-indole
SMILES: COc1cc(-c2cc3cccc(C)c3[nH]2)ccc1O [Stabilizer 8, 2-(3'-methoxy-4'-hydroxy-phenyl)-7-methyl-indole]

SMILES: COc1ccc(-c2cc3cc(C)ccc3[nH]2)cc1 [Stabilizer 4, 2-(4'-methoxy-phenyl)-5-methyl-indole]
- LDO (maximal dose which does not provoke any death) (mice [3]): > 500 mg/kg
- Toxic symptoms (mice [3]; LDO table): none
- Stabilizing power compared with 2-phenyl-indole [1]: superior to 2-phenyl-indole

SMILES: c1ccc(-c2cc3ccccc3[nH]2)cc1 [2-phenyl-indole]
- Stabilizing power [4]: good stabilizing power
- Toxicity (mice [5]): low toxicity

SMILES: COc1ccc(-c2cc3ccc(C)cc3[nH]2)cc1 [Stabilizer 6, 2-(4'-methoxy-phenyl)-6-methyl-indole]
- LD50 [6]: > 3000 mg/kg
- Toxic symptoms (mice [3]; LD50 table): none
- Stabilizing power compared with 2-phenyl-indole [1]: superior to 2-phenyl-indole

SMILES: CCCCCCCCCCCCOc1ccc(-c2cc3ccc(C)cc3[nH]2)cc1 [Stabilizer 12]
- LD50 [6]: > 3000 mg/kg
- Toxic symptoms (mice [3]; LD50 table): none

SMILES: Oc1ccc2[nH]c(-c3ccccc3)cc2c1 [Stabilizer 19]
- LDO (maximal dose which does not provoke any death) (mice [3]): > 500 mg/kg
- Toxic symptoms (mice [3]; LDO table): none

- Stabilizing power compared with 2-phenyl-indole [1]: superior to 2-phenyl-indole
- Extractibility, times less than 2-phenyl-indole [2]: at least 10 times
- Extractibility compared with 2-phenyl-indole [2]: markedly superior to 2-phenyl-indole
SMILES: Oc1ccc2cc(-c3ccccc3)[nH]c2c1 [Stabilizer 2, 2-phenyl-6-hydroxy-indole]

SMILES: Oc1ccc2[nH]c(-c3ccccc3)cc2c1 [Stabilizer 19, 2-phenyl-5-hydroxy-indole]
- Stabilizing power compared with 2-phenyl-indole [1]: superior to 2-phenyl-indole

- Stabilizing power compared with 2-phenyl-indole [1]: superior to 2-phenyl-indole
SMILES: COc1cc(-c2cc3cc(C)ccc3[nH]2)ccc1O [Stabilizer 15, 2(3'-methoxy-4'-hydroxy-phenyl)-5-methyl-indole]

SMILES: CCCCCCCCCCCCOc1ccc(-c2cc3cccc(C)c3[nH]2)cc1C [Stabilizer 14, 2-(3'-methyl-4'-dodecyloxy-phenyl)-7-methyl-indole]
- Extractibility compared with 2-phenyl-indole ([2]; aqueous ethanol and heptane): markedly less extractible than 2-phenyl-indole

- Stabilizing power compared with 2-phenyl-indole [1]: superior to 2-phenyl-indole
SMILES: COc1ccc2cc(-c3ccccc3)[nH]c2c1 [Stabilizer 1, 2-phenyl-6-methoxy-indole]

SMILES: CCCCCCCCCCCCOc1ccc2[nH]c(-c3ccccc3)cc2c1 [Stabilizer 3, 2-phenyl-5-dodecyloxy-indole]
- LD50 [6]: > 5000 mg/kg
- Toxic symptoms (mice [3]; LD50 table): none
- Stabilizing power compared with 2-phenyl-indole [1]: superior to 2-phenyl-indole
- Extractibility compared with 2-phenyl-indole ([2]; aqueous ethanol and heptane): markedly less extractible than 2-phenyl-indole

- Stabilizing power compared with 2-phenyl-indole [1]: superior to 2-phenyl-indole
SMILES: COc1ccc(-c2cc3cccc(C)c3[nH]2)cc1 [Stabilizer 5, 2-(4'-methoxy-phenyl)-7-methyl-indole]
